Literature values, collected in patent publication US20230321462A1, “Method for Improving Olfactory Sensitivity” (Kao Corporation, priority 2019, published 2023).

Assays:
Conditions in all cases: Table 3; cited from earlier work
[1] = target: T1, OR2T1 (Homo sapiens, UniProt O43869)
T1 sequence (O43869 1-369): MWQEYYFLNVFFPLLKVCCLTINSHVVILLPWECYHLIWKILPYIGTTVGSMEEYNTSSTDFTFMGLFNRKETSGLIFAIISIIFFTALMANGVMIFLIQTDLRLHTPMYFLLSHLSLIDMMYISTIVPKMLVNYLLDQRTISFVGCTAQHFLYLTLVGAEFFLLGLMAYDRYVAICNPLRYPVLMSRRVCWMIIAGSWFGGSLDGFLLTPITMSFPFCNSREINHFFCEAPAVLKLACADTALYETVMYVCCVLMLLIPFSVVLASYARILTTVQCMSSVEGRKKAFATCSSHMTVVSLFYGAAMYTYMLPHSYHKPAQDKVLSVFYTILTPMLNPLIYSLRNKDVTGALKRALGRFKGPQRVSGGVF

[2] = target: T2, OR51D1 (Homo sapiens, UniProt Q8NGF3)
T2 sequence (Q8NGF3 1-324): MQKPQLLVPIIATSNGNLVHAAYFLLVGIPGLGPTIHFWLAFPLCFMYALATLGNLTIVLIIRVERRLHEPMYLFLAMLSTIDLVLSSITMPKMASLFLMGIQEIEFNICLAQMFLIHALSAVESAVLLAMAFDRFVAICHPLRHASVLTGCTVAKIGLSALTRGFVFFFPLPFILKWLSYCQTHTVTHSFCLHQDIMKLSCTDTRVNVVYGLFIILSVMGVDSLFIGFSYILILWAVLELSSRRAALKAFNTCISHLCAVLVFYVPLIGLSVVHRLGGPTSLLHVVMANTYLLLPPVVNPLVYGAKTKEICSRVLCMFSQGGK

[3] = target: T3, OR5Al1 (Homo sapiens, UniProt P0C617)
T3 sequence (P0C617 1-329): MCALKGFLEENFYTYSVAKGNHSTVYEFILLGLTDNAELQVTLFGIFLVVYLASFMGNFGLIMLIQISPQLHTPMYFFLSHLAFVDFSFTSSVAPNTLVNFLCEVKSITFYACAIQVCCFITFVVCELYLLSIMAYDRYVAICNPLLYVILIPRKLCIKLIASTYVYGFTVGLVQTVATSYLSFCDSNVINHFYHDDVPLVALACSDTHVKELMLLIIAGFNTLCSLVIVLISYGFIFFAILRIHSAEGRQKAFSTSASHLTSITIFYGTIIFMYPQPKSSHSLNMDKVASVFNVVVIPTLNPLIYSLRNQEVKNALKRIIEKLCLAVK

[4] = target: T4, OR7G2 (Homo sapiens, UniProt Q8NG99)
T4 sequence (Q8NG99 1-324): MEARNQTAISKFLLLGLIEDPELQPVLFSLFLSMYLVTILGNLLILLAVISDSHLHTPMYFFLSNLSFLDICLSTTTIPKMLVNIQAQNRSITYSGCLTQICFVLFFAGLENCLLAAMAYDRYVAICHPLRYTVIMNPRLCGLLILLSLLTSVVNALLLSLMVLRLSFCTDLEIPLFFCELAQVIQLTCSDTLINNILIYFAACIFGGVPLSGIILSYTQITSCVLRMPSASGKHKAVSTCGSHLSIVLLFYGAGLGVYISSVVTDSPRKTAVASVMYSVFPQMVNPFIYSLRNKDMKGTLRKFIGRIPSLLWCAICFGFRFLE

CCCC(=O)O [Butyric acid]
recognized by: recognition by OR2T1 [1] | recognition by OR51D1 [2] | recognition by OR5Al1 [3] | recognition by OR7G2 [4]
